From patent US9695155B2, “Herbicidal substituted pyrimidinyloxy benzene compounds” (E. I. DU PONT DE NEMOURS AND COMPANY, priority 2013, dated 2017)

Key:
galium = experiment: Test D preemergence; format: in vivo, Galium aparine
Text: (§1) Seeds of plant species selected from bluegrass (annual bluegrass, Poa annua), blackgrass (Alopecurus myosuroides), canarygrass (littleseed canarygrass, Phalaris minor), chickweed (common chickweed, Stellaria media), galium (catchweed bedstraw, Galium aparine), bromegrass, downy (downy bromegrass, Bromus tectorum), field poppy (Papaver rhoeas), field violet (Viola arvensis), green foxtail (Setaria viridis), deadnettle (henbit deadnettle, Lamium amplexicaule), Italian ryegrass (Lolium multiflorum), kochia (Kochia scoparia), lambsquarters (Chenopodium album), oilseed rape (Brassica napus), pigweed (Amaranthus retroflexus), chamomile (scentless chamomile, Matricaria inodora), Russian thistle (Salsola kali), speedwell (bird's-eye speedwell, Veronica persica), spring barley (Hordeum vulgare), spring wheat (Triticum aestivum), wild buckwheat (Polygonum convolvulus), wild mustard (Sinapis arvensis), wild oat (Avena fatua), wild radish (Raphanus raphanistrum), windgrass (Apera spica-venti), winter barley (Hordeum vulgare), and winter wheat (Triticum aestivum) were planted into a silt loam soil and treated preemergence with test chemicals formulated in a non-phytotoxic solvent mixture which included a surfactant.
(§2) At the same time, these species were planted in pots containing Redi-Earth® planting medium (Scotts Company, 14111 Scottslawn Road, Marysville, Ohio 43041) comprising spaghnum peat moss, vermiculite, wetting agent and starter nutrients and treated with postemergence applications of the test chemicals formulated in the same manner. Plants ranged in height from 2 to 18 cm (1- to 4-leaf stage). Treated plants and controls were maintained in a controlled growth environment for 7 to 21 days after which time all species were compared to controls and visually evaluated. Plant response ratings, summarized in Table D, are based on a scale of 0 to 100 where 0 is no effect and 100 is complete control. A dash (-) response means no test result.

blackgrass = experiment: Test D preemergence; format: in vivo, Alopecurus myosuroides
Text: as §1, §2

speedwell = experiment: Test D postemergence; format: in vivo, Veronica persica
Text: as §1, §2

kochia = experiment: Test D postemergence; format: in vivo, Kochia scoparia
Text: as §1, §2

oilseed rape = experiment: Test D preemergence; format: in vivo, Brassica napus
Text: as §1, §2

bromegrass, downy = experiment: Test D postemergence; format: in vivo, Bromus tectorum
Text: as §1, §2

green foxtail = experiment: Test D preemergence; format: in vivo, Setaria viridis
Text: as §1, §2

[1] = 16 g ai/ha, scale 0 (no effect) to 100 (complete control)
[2] = 31 g ai/ha, scale 0 to 100 (0 no effect, 100 complete control)
[3] = 62 g ai/ha, scale 0 to 100 (0 no effect, 100 complete control)
[4] = 125 g ai/ha, scale 0 to 100 (0 no effect, 100 complete control)
[5] = Galium, pre-emergence, 31 g ai/ha, scale 0-100, read-out: Plant response rating, Galium
[6] = Galium, pre-emergence, 62 g ai/ha, scale 0-100, read-out: Plant response rating, Galium
[7] = Galium, pre-emergence, 125 g ai/ha, scale 0-100, read-out: Plant response rating, Galium
[8] = Alopecurus myosuroides, pre-emergence, 31 g ai/ha, scale 0-100, read-out: Plant response rating, Blackgrass
[9] = Alopecurus myosuroides, pre-emergence, 62 g ai/ha, scale 0-100, read-out: Plant response rating, Blackgrass
[10] = Alopecurus myosuroides, pre-emergence, 125 g ai/ha, scale 0-100, read-out: Plant response rating, Blackgrass
[11] = Veronica persica, post-emergence, 31 g ai/ha, scale 0 to 100 (0 no effect, 100 complete control), read-out: Plant response rating, Speedwell
[12] = Veronica persica, post-emergence, 62 g ai/ha, scale 0 to 100 (0 no effect, 100 complete control), read-out: Plant response rating, Speedwell
[13] = Veronica persica, post-emergence, 125 g ai/ha, scale 0 to 100 (0 no effect, 100 complete control), read-out: Plant response rating, Speedwell
[14] = Bassia scoparia, post-emergence, 31 g ai/ha, scale 0 to 100 (0 no effect, 100 complete control), read-out: Plant response rating, Kochia
[15] = Bassia scoparia, post-emergence, 62 g ai/ha, scale 0 to 100 (0 no effect, 100 complete control), read-out: Plant response rating, Kochia
[16] = Bassia scoparia, post-emergence, 125 g ai/ha, scale 0 to 100 (0 no effect, 100 complete control), read-out: Plant response rating, Kochia
[17] = Brassica napus, pre-emergence, 31 g ai/ha, scale 0-100, read-out: Plant response rating, Oilseed Rape
[18] = Brassica napus, pre-emergence, 62 g ai/ha, scale 0-100, read-out: Plant response rating, Oilseed Rape
[19] = Brassica napus, pre-emergence, 125 g ai/ha, scale 0-100, read-out: Plant response rating, Oilseed Rape
[20] = Bromus tectorum, post-emergence, Postemergence, 31 g ai/ha, scale 0 to 100 (0 no effect, 100 complete control), read-out: Plant response rating, Bromegrass, Downy
[21] = Bromus tectorum, post-emergence, Postemergence, 62 g ai/ha, scale 0 to 100 (0 no effect, 100 complete control), read-out: Plant response rating, Bromegrass, Downy
[22] = Bromus tectorum, post-emergence, Postemergence, 125 g ai/ha, scale 0 to 100 (0 no effect, 100 complete control), read-out: Plant response rating, Bromegrass, Downy
[23] = Setaria viridis, pre-emergence, 31 g ai/ha, scale 0-100, read-out: Plant response rating, Foxtail, Green
[24] = Setaria viridis, pre-emergence, 62 g ai/ha, scale 0-100, read-out: Plant response rating, Foxtail, Green
[25] = Setaria viridis, pre-emergence, 125 g ai/ha, scale 0-100, read-out: Plant response rating, Foxtail, Green

SMILES: FCc1cccc(Oc2ncc(Cl)cn2)c1-n1cc(I)cn1 [Compound 245]
- Plant response rating, Galium (galium; [1]): 0
- Plant response rating, Galium (galium; 31 g ai/ha, scale 0-100): 0
- Plant response rating, Galium (galium; 62 g ai/ha, scale 0-100): 5
- Plant response rating, Galium (galium; 125 g ai/ha, scale 0-100): 85
- Plant response rating, Blackgrass (blackgrass; [1]): 0
- Plant response rating, Blackgrass (blackgrass; 31 g ai/ha, scale 0-100): 0
- Plant response rating, Blackgrass (blackgrass; 62 g ai/ha, scale 0-100): 10
- Plant response rating, Blackgrass (blackgrass; 125 g ai/ha, scale 0-100): 65
- Plant response rating, Speedwell (speedwell; 16 g ai/ha, scale 0-100): 100
- Plant response rating, Speedwell (speedwell; [2]): 100
- Plant response rating, Speedwell (speedwell; [3]): 100
- Plant response rating, Speedwell (speedwell; [4]): 100
- Plant response rating, Kochia (kochia; 16 g ai/ha, scale 0-100): 25
- Plant response rating, Kochia (kochia; [2]): 70
- Plant response rating, Kochia (kochia; [3]): 90
- Plant response rating, Kochia (kochia; [4]): 90
- Plant response rating, Oilseed Rape (oilseed rape; [1]): 0
- Plant response rating, Oilseed Rape (oilseed rape; 31 g ai/ha, scale 0-100): 0
- Plant response rating, Oilseed Rape (oilseed rape; 62 g ai/ha, scale 0-100): 30
- Plant response rating, Oilseed Rape (oilseed rape; 125 g ai/ha, scale 0-100): 100
- Plant response rating, Bromegrass, Downy (bromegrass, downy; Postemergence, 62 g ai/ha, scale 0 to 100 (0 no effect, 100 complete control)): 25
- Plant response rating, Bromegrass, Downy (bromegrass, downy; Postemergence, 31 g ai/ha, scale 0 to 100 (0 no effect, 100 complete control)): 20
- Plant response rating, Bromegrass, Downy (bromegrass, downy; Postemergence, 125 g ai/ha, scale 0 to 100 (0 no effect, 100 complete control)): 30
- Plant response rating, Bromegrass, Downy (bromegrass, downy; postemergence, 16 g ai/ha, scale 0 to 100, 0 no effect, 100 complete control): 20
- Plant response rating, Foxtail, Green (green foxtail; [1]): 0
- Plant response rating, Foxtail, Green (green foxtail; 31 g ai/ha, scale 0-100): 0
- Plant response rating, Foxtail, Green (green foxtail; 62 g ai/ha, scale 0-100): 0
- Plant response rating, Foxtail, Green (green foxtail; 125 g ai/ha, scale 0-100): 35

SMILES: N#Cc1cccc(Oc2ncc(Cl)cn2)c1-n1cc(Br)cn1 [Compound 52, 2-(4-bromo-1H-pyrazol-1-yl)-3-[(5-chloro-2-pyrimidinyl)oxy]benzonitrile]
- pest or weed control at 31 g/ha (galium; [5]): 10%
- pest or weed control at 62 g/ha (galium; [6]): 20%
- pest or weed control at 125 g/ha (galium; [7]): 75%
- pest or weed control at 250 g/ha (galium; Galium, pre-emergence, 250 g ai/ha, scale 0-100, read-out: Plant response rating, Galium): 70%
- pest or weed control at 31 g/ha (blackgrass; [8]): 5%
- pest or weed control at 62 g/ha (blackgrass; [9]): 5%
- pest or weed control at 125 g/ha (blackgrass; [10]): 30%
- pest or weed control at 250 g/ha (blackgrass; Alopecurus myosuroides, pre-emergence, 250 g ai/ha, scale 0-100, read-out: Plant response rating, Blackgrass): 95%
- pest or weed control at 31 g/ha (speedwell; [11]): 70%
- pest or weed control at 62 g/ha (speedwell; [12]): 95%
- pest or weed control at 125 g/ha (speedwell; [13]): 100%
- pest or weed control at 250 g/ha (speedwell; Veronica persica, post-emergence, 250 g ai/ha, scale 0 to 100 (0 no effect, 100 complete control), read-out: Plant response rating, Speedwell): 100%
- pest or weed control at 31 g/ha (kochia; [14]): 80%
- pest or weed control at 62 g/ha (kochia; [15]): 90%
- pest or weed control at 125 g/ha (kochia; [16]): 90%
- pest or weed control at 250 g/ha (kochia; Bassia scoparia, post-emergence, 250 g ai/ha, scale 0 to 100 (0 no effect, 100 complete control), read-out: Plant response rating, Kochia): 90%
- plant injury at 31 g/ha (oilseed rape; [17]): 0%
- plant injury at 62 g/ha (oilseed rape; [18]): 80%
- plant injury at 125 g/ha (oilseed rape; [19]): 100%
- plant injury at 250 g/ha (oilseed rape; Brassica napus, pre-emergence, 250 g ai/ha, scale 0-100, read-out: Plant response rating, Oilseed Rape): 100%
- pest or weed control at 31 g/ha (bromegrass, downy; [20]): 15%
- pest or weed control at 62 g/ha (bromegrass, downy; [21]): 20%
- pest or weed control at 125 g/ha (bromegrass, downy; [22]): 20%
- pest or weed control at 250 g/ha (bromegrass, downy; Bromus tectorum, post-emergence, Postemergence, 250 g ai/ha, scale 0 to 100 (0 no effect, 100 complete control), read-out: Plant response rating, Bromegrass, Downy): 25%
- pest or weed control at 31 g/ha (green foxtail; [23]): 20%
- pest or weed control at 62 g/ha (green foxtail; [24]): 60%
- pest or weed control at 125 g/ha (green foxtail; [25]): 100%
- pest or weed control at 250 g/ha (green foxtail; Setaria viridis, pre-emergence, 250 g ai/ha, scale 0-100, read-out: Plant response rating, Foxtail, Green): 100%

SMILES: Fc1cccc(Oc2ncc(Cl)cn2)c1-n1cc(C(F)F)nn1 [Compound 141, 5-chloro-2-[2-[4-(difluoromethyl)-1H-1,2,3-triazol-1-yl]-3-fluorophenoxy]pyrimidine]
- pest or weed control at 16 g/ha (galium; Galium, pre-emergence, 16 g ai/ha, scale 0 (no effect) to 100 (complete control), read-out: Plant response rating, Galium): 75%
- pest or weed control at 31 g/ha (galium; [5]): 100%
- pest or weed control at 62 g/ha (galium; [6]): 100%
- pest or weed control at 125 g/ha (galium; [7]): 100%
- pest or weed control at 16 g/ha (blackgrass; Alopecurus myosuroides, pre-emergence, 16 g ai/ha, scale 0 (no effect) to 100 (complete control), read-out: Plant response rating, Blackgrass): 40%
- pest or weed control at 31 g/ha (blackgrass; [8]): 65%
- pest or weed control at 62 g/ha (blackgrass; [9]): 90%
- pest or weed control at 125 g/ha (blackgrass; [10]): 95%
- pest or weed control at 16 g/ha (speedwell; Veronica persica, post-emergence, 16 g ai/ha, scale 0-100, read-out: Plant response rating, Speedwell): 100%
- pest or weed control at 31 g/ha (speedwell; [11]): 100%
- pest or weed control at 62 g/ha (speedwell; [12]): 100%
- pest or weed control at 125 g/ha (speedwell; [13]): 100%
- pest or weed control at 16 g/ha (kochia; Bassia scoparia, post-emergence, 16 g ai/ha, scale 0-100, read-out: Plant response rating, Kochia): 70%
- pest or weed control at 31 g/ha (kochia; [14]): 85%
- pest or weed control at 62 g/ha (kochia; [15]): 100%
- pest or weed control at 125 g/ha (kochia; [16]): 100%
- plant injury at 16 g/ha (oilseed rape; Brassica napus, pre-emergence, 16 g ai/ha, scale 0 (no effect) to 100 (complete control), read-out: Plant response rating, Oilseed Rape): 100%
- plant injury at 31 g/ha (oilseed rape; [17]): 100%
- plant injury at 62 g/ha (oilseed rape; [18]): 100%
- plant injury at 125 g/ha (oilseed rape; [19]): 100%
- pest or weed control at 16 g/ha (bromegrass, downy; Bromus tectorum, post-emergence, Postemergence, 16 g ai/ha, scale 0 to 100 (0 no effect, 100 complete control), read-out: Plant response rating, Bromegrass, Downy): 15%
- pest or weed control at 31 g/ha (bromegrass, downy; [20]): 20%
- pest or weed control at 62 g/ha (bromegrass, downy; [21]): 30%
- pest or weed control at 125 g/ha (bromegrass, downy; [22]): 45%
- pest or weed control at 16 g/ha (green foxtail; Setaria viridis, pre-emergence, 16 g ai/ha, scale 0 (no effect) to 100 (complete control), read-out: Plant response rating, Foxtail, Green): 10%
- pest or weed control at 31 g/ha (green foxtail; [23]): 100%
- pest or weed control at 62 g/ha (green foxtail; [24]): 100%
- pest or weed control at 125 g/ha (green foxtail; [25]): 100%
